Reference: patent US8192962B2, “Processes for detecting toxic substances” (Daikin Industries, Ltd., priority 2001, dated 2012)

Tested on: Detoxification protein genes
Test: DNA chip mRNA expression in yeast, detoxification protein genes (Table 8)
Format: cell-based, Saccharomyces cerevisiae S288C
Procedure, shortened: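 Value is the scanned fluorescence intensity ratio of exposed versus chemical-free cells. Log-phase S288C yeast in YPD at 25° C. received one toxic substance for two hours, dosed to slow growth without killing; Cy3/Cy5-labeled cDNA from oligo-dT-purified mRNA was hybridized to a whole-genome chip at 65° C.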

S=C([S-])NCCNC(=S)[S-].[Zn+2] [(11), zinc N,N′-ethylenebis(dithiocarbamate)]
The level of expressed mRNA in the presence of chemical substance/The level of expressed mRNA in the absence of chemical substance (yeast gene YBL064C): 2.9
The level of expressed mRNA in the presence of chemical substance/The level of expressed mRNA in the absence of chemical substance (yeast gene YBR008C): 9.4
The level of expressed mRNA in the presence of chemical substance/The level of expressed mRNA in the absence of chemical substance (yeast gene YBR145W): 1.1
The level of expressed mRNA in the presence of chemical substance/The level of expressed mRNA in the absence of chemical substance (yeast gene YBR244W): 1.5
The level of expressed mRNA in the presence of chemical substance/The level of expressed mRNA in the absence of chemical substance (yeast gene YBR293W): 1.1
The level of expressed mRNA in the presence of chemical substance/The level of expressed mRNA in the absence of chemical substance (yeast gene YCL035C): 2.1
The level of expressed mRNA in the presence of chemical substance/The level of expressed mRNA in the absence of chemical substance (yeast gene YCL069W): 1.0
The level of expressed mRNA in the presence of chemical substance/The level of expressed mRNA in the absence of chemical substance (yeast gene YCR083W): 1.8
The level of expressed mRNA in the presence of chemical substance/The level of expressed mRNA in the absence of chemical substance (yeast gene YDL100C): 2.8
The level of expressed mRNA in the presence of chemical substance/The level of expressed mRNA in the absence of chemical substance (yeast gene YDL168W): 1.9
The level of expressed mRNA in the presence of chemical substance/The level of expressed mRNA in the absence of chemical substance (yeast gene YDR256C): 1.4
The level of expressed mRNA in the presence of chemical substance/The level of expressed mRNA in the absence of chemical substance (yeast gene YDR453C): 2.3
The level of expressed mRNA in the presence of chemical substance/The level of expressed mRNA in the absence of chemical substance (yeast gene YDR513W): 2.0
The level of expressed mRNA in the presence of chemical substance/The level of expressed mRNA in the absence of chemical substance (yeast gene YDR538W): 0.9
The level of expressed mRNA in the presence of chemical substance/The level of expressed mRNA in the absence of chemical substance (yeast gene YEL027W): 0.9
The level of expressed mRNA in the presence of chemical substance/The level of expressed mRNA in the absence of chemical substance (yeast gene YEL065W): 0.6
The level of expressed mRNA in the presence of chemical substance/The level of expressed mRNA in the absence of chemical substance (yeast gene YER185W): 1.6
The level of expressed mRNA in the presence of chemical substance/The level of expressed mRNA in the absence of chemical substance (yeast gene YFL050C): 1.2
The level of expressed mRNA in the presence of chemical substance/The level of expressed mRNA in the absence of chemical substance (yeast gene YGL013C): 0.9
The level of expressed mRNA in the presence of chemical substance/The level of expressed mRNA in the absence of chemical substance (yeast gene YGL254W): 1.1
The level of expressed mRNA in the presence of chemical substance/The level of expressed mRNA in the absence of chemical substance (yeast gene YGR088W): 3.9
The level of expressed mRNA in the presence of chemical substance/The level of expressed mRNA in the absence of chemical substance (yeast gene YGR138C): 0.7
The level of expressed mRNA in the presence of chemical substance/The level of expressed mRNA in the absence of chemical substance (yeast gene YGR197C): 1.1
The level of expressed mRNA in the presence of chemical substance/The level of expressed mRNA in the absence of chemical substance (yeast gene YGR209C): 3.1
The level of expressed mRNA in the presence of chemical substance/The level of expressed mRNA in the absence of chemical substance (yeast gene YGR224W): 0.8
The level of expressed mRNA in the presence of chemical substance/The level of expressed mRNA in the absence of chemical substance (yeast gene YHL040C): 1.7
The level of expressed mRNA in the presence of chemical substance/The level of expressed mRNA in the absence of chemical substance (yeast gene YHL047C): 1.0
The level of expressed mRNA in the presence of chemical substance/The level of expressed mRNA in the absence of chemical substance (yeast gene YHR008C): 2.1
The level of expressed mRNA in the presence of chemical substance/The level of expressed mRNA in the absence of chemical substance (yeast gene YHR048W): 2.0
The level of expressed mRNA in the presence of chemical substance/The level of expressed mRNA in the absence of chemical substance (yeast gene YHR053C): 1.4
The level of expressed mRNA in the presence of chemical substance/The level of expressed mRNA in the absence of chemical substance (yeast gene YHR055C): 1.8
The level of expressed mRNA in the presence of chemical substance/The level of expressed mRNA in the absence of chemical substance (yeast gene YIR002C): 0.8
The level of expressed mRNA in the presence of chemical substance/The level of expressed mRNA in the absence of chemical substance (yeast gene YIR038C): 3.4
The level of expressed mRNA in the presence of chemical substance/The level of expressed mRNA in the absence of chemical substance (yeast gene YJL101C): 2.7
The level of expressed mRNA in the presence of chemical substance/The level of expressed mRNA in the absence of chemical substance (yeast gene YJR104C): 2.6
The level of expressed mRNA in the presence of chemical substance/The level of expressed mRNA in the absence of chemical substance (yeast gene YKL026C): 3.0
The level of expressed mRNA in the presence of chemical substance/The level of expressed mRNA in the absence of chemical substance (yeast gene YKL064W): 0.7
The level of expressed mRNA in the presence of chemical substance/The level of expressed mRNA in the absence of chemical substance (yeast gene YKR066C): 1.3
The level of expressed mRNA in the presence of chemical substance/The level of expressed mRNA in the absence of chemical substance (yeast gene YKR105C): 0.0
The level of expressed mRNA in the presence of chemical substance/The level of expressed mRNA in the absence of chemical substance (yeast gene YKR106W): 1.8
The level of expressed mRNA in the presence of chemical substance/The level of expressed mRNA in the absence of chemical substance (yeast gene YLL028W): 0.7
The level of expressed mRNA in the presence of chemical substance/The level of expressed mRNA in the absence of chemical substance (yeast gene YLL057C): 1.3
The level of expressed mRNA in the presence of chemical substance/The level of expressed mRNA in the absence of chemical substance (yeast gene YLL060C): 14.1
The level of expressed mRNA in the presence of chemical substance/The level of expressed mRNA in the absence of chemical substance (yeast gene YLR043C): 1.4
The level of expressed mRNA in the presence of chemical substance/The level of expressed mRNA in the absence of chemical substance (yeast gene YLR046C): 0.9
The level of expressed mRNA in the presence of chemical substance/The level of expressed mRNA in the absence of chemical substance (yeast gene YML028W): 1.0
The level of expressed mRNA in the presence of chemical substance/The level of expressed mRNA in the absence of chemical substance (yeast gene YML116W): 4.3
The level of expressed mRNA in the presence of chemical substance/The level of expressed mRNA in the absence of chemical substance (yeast gene YMR015C): 1.0
The level of expressed mRNA in the presence of chemical substance/The level of expressed mRNA in the absence of chemical substance (yeast gene YMR038C): 2.7
The level of expressed mRNA in the presence of chemical substance/The level of expressed mRNA in the absence of chemical substance (yeast gene YNL239W): 1.9
The level of expressed mRNA in the presence of chemical substance/The level of expressed mRNA in the absence of chemical substance (yeast gene YNL241C): 3.0
The level of expressed mRNA in the presence of chemical substance/The level of expressed mRNA in the absence of chemical substance (yeast gene YNL259C): 1.6
The level of expressed mRNA in the presence of chemical substance/The level of expressed mRNA in the absence of chemical substance (yeast gene YOL158C): 0.7
The level of expressed mRNA in the presence of chemical substance/The level of expressed mRNA in the absence of chemical substance (yeast gene YOR031W): 1.2
The level of expressed mRNA in the presence of chemical substance/The level of expressed mRNA in the absence of chemical substance (yeast gene YOR153W): 1.0
The level of expressed mRNA in the presence of chemical substance/The level of expressed mRNA in the absence of chemical substance (yeast gene YOR247W): 2.9
The level of expressed mRNA in the presence of chemical substance/The level of expressed mRNA in the absence of chemical substance (yeast gene YOR251C): 1.0
The level of expressed mRNA in the presence of chemical substance/The level of expressed mRNA in the absence of chemical substance (yeast gene YOR273C): 1.5
The level of expressed mRNA in the presence of chemical substance/The level of expressed mRNA in the absence of chemical substance (yeast gene YPL163C): 0.5
The level of expressed mRNA in the presence of chemical substance/The level of expressed mRNA in the absence of chemical substance (yeast gene YPR200C): 2.0
